Patent publication US20260266848A1, “COMPOSITIONS AND METHODS FOR DIAGNOSING AND TREATING DYSTONIA” (Duke University, priority 2023, published 2026)

Tested on: WT MEF EVs
Assay: Quantitative LC-MS/MS proteomics of EVs from ISRIB-treated WT MEF cultures
Format: cell-based, mouse

Compound: O=C(COc1ccc(Cl)cc1)NC1CCC(NC(=O)COc2ccc(Cl)cc2)CC1 (centres unmarked) [ISRIB, reference compound]
- Hnrnpc (HNRNPC) EV abundance Log2_FC (WT+ISRIB/WT, 50 nM, 24 h): 1.478
- Ipo9 (IPO9) EV abundance Cohen's d (WT+ISRIB/WT, 50 nM, 24 h): −0.4661
- Ipo9 (IPO9) EV abundance Log2_FC (WT+ISRIB/WT, 50 nM, 24 h): −0.5386
- Jam3 (JAM3) EV abundance Cohen's d (WT+ISRIB/WT, 50 nM, 24 h): −0.3267
- Jam3 (JAM3) EV abundance Log2_FC (WT+ISRIB/WT, 50 nM, 24 h): 0.373
- Lipg (LIPG) EV abundance Cohen's d (WT+ISRIB/WT, 50 nM, 24 h): 0.7395
- Lipg (LIPG) EV abundance Log2_FC (WT+ISRIB/WT, 50 nM, 24 h): −0.3639
- Lrrc59 (LRRC59) EV abundance Cohen's d (WT+ISRIB/WT, 50 nM, 24 h): −0.6884
- Lrrc59 (LRRC59) EV abundance Log2_FC (WT+ISRIB/WT, 50 nM, 24 h): 0.3431
- Mapk3 (MAPK3) EV abundance Cohen's d (WT+ISRIB/WT, 50 nM, 24 h): −0.8739
- Mapk3 (MAPK3) EV abundance Log2_FC (WT+ISRIB/WT, 50 nM, 24 h): −0.163
- Mars (MARS1) EV abundance Cohen's d (WT+ISRIB/WT, 50 nM, 24 h): 0.05955
- Mars (MARS1) EV abundance Log2_FC (WT+ISRIB/WT, 50 nM, 24 h): −0.3717
- Mrc2 (MRC2) EV abundance Cohen's d (WT+ISRIB/WT, 50 nM, 24 h): 0.2117
- Mrc2 (MRC2) EV abundance Log2_FC (WT+ISRIB/WT, 50 nM, 24 h): −0.2942
- Myh9 (MYH9) EV abundance Cohen's d (WT+ISRIB/WT, 50 nM, 24 h): −0.02365
- Myh9 (MYH9) EV abundance Log2_FC (WT+ISRIB/WT, 50 nM, 24 h): 0.05232
- Ndnf (NDNF) EV abundance Cohen's d (WT+ISRIB/WT, 50 nM, 24 h): 1.071
- Ndnf (NDNF) EV abundance Log2_FC (WT+ISRIB/WT, 50 nM, 24 h): −0.1375
- Pcmt1 (PCMT1) EV abundance Cohen's d (WT+ISRIB/WT, 50 nM, 24 h): −0.8553
- Pcmt1 (PCMT1) EV abundance Log2_FC (WT+ISRIB/WT, 50 nM, 24 h): −0.06624
- Pi4ka (PI4KA) EV abundance Cohen's d (WT+ISRIB/WT, 50 nM, 24 h): −0.4893
- Pi4ka (PI4KA) EV abundance Log2_FC (WT+ISRIB/WT, 50 nM, 24 h): 0.3826
- Pitpnb (PITPNB) EV abundance Cohen's d (WT+ISRIB/WT, 50 nM, 24 h): −1.114
- Pitpnb (PITPNB) EV abundance Log2_FC (WT+ISRIB/WT, 50 nM, 24 h): 1.461
- Prpsap2 (PRPSAP2) EV abundance Cohen's d (WT+ISRIB/WT, 50 nM, 24 h): 0.2158
- Prpsap2 (PRPSAP2) EV abundance Log2_FC (WT+ISRIB/WT, 50 nM, 24 h): −0.6725
- Psmc5 (PSMC5) EV abundance Cohen's d (WT+ISRIB/WT, 50 nM, 24 h): 0.4267
- Psmc5 (PSMC5) EV abundance Log2_FC (WT+ISRIB/WT, 50 nM, 24 h): −0.3622
- Psmd12 (PSMD12) EV abundance Cohen's d (WT+ISRIB/WT, 50 nM, 24 h): 0.00373
- Psmd12 (PSMD12) EV abundance Log2_FC (WT+ISRIB/WT, 50 nM, 24 h): −0.3805
- Psme4 (PSME4) EV abundance Cohen's d (WT+ISRIB/WT, 50 nM, 24 h): −0.8162
- Psme4 (PSME4) EV abundance Log2_FC (WT+ISRIB/WT, 50 nM, 24 h): −0.7974
- Ptma (PTMA) EV abundance Cohen's d (WT+ISRIB/WT, 50 nM, 24 h): 0.6355
- Ptma (PTMA) EV abundance Log2_FC (WT+ISRIB/WT, 50 nM, 24 h): 2.638
- Rap2b (RAP2B) EV abundance Cohen's d (WT+ISRIB/WT, 50 nM, 24 h): 0.3788
- Rap2b (RAP2B) EV abundance Log2_FC (WT+ISRIB/WT, 50 nM, 24 h): −0.1245
- Rbm3 (RBM3) EV abundance Cohen's d (WT+ISRIB/WT, 50 nM, 24 h): −0.3159
- Rbm3 (RBM3) EV abundance Log2_FC (WT+ISRIB/WT, 50 nM, 24 h): 0.2028
- Rhoa (RHOA) EV abundance Cohen's d (WT+ISRIB/WT, 50 nM, 24 h): −1.25
- Rhoa (RHOA) EV abundance Log2_FC (WT+ISRIB/WT, 50 nM, 24 h): −0.00598
- Rpl10 (RPL10) EV abundance Cohen's d (WT+ISRIB/WT, 50 nM, 24 h): −0.35
- Rpl10 (RPL10) EV abundance Log2_FC (WT+ISRIB/WT, 50 nM, 24 h): 0.00077
- Rpl13a (RPL13A) EV abundance Cohen's d (WT+ISRIB/WT, 50 nM, 24 h): 0.3123
- Rpl13a (RPL13A) EV abundance Log2_FC (WT+ISRIB/WT, 50 nM, 24 h): 0.04217
- Rps13 (RPS13) EV abundance Cohen's d (WT+ISRIB/WT, 50 nM, 24 h): −0.2269
- Rps13 (RPS13) EV abundance Log2_FC (WT+ISRIB/WT, 50 nM, 24 h): 0.2809
- Sec31a (SEC31A) EV abundance Cohen's d (WT+ISRIB/WT, 50 nM, 24 h): −0.3764
- Sec31a (SEC31A) EV abundance Log2_FC (WT+ISRIB/WT, 50 nM, 24 h): −0.2838
- Slc2a1 (SLC2A1) EV abundance Cohen's d (WT+ISRIB/WT, 50 nM, 24 h): −0.34
- Slc2a1 (SLC2A1) EV abundance Log2_FC (WT+ISRIB/WT, 50 nM, 24 h): 0.08012
- Stom (STOM) EV abundance Cohen's d (WT+ISRIB/WT, 50 nM, 24 h): −0.7279
- Stom (STOM) EV abundance Log2_FC (WT+ISRIB/WT, 50 nM, 24 h): 0.1135
- Tardbp (TARDBP) EV abundance Cohen's d (WT+ISRIB/WT, 50 nM, 24 h): −0.3087
- Tardbp (TARDBP) EV abundance Log2_FC (WT+ISRIB/WT, 50 nM, 24 h): −0.06285
- Tgfb2 (TGFB2) EV abundance Cohen's d (WT+ISRIB/WT, 50 nM, 24 h): 0.6984
- Tgfb2 (TGFB2) EV abundance Log2_FC (WT+ISRIB/WT, 50 nM, 24 h): −0.319
- Tln1 (TLN1) EV abundance Cohen's d (WT+ISRIB/WT, 50 nM, 24 h): −0.39
- Tln1 (TLN1) EV abundance Log2_FC (WT+ISRIB/WT, 50 nM, 24 h): −0.05074
- Tln2 (TLN2) EV abundance Cohen's d (WT+ISRIB/WT, 50 nM, 24 h): −0.7484
- Tln2 (TLN2) EV abundance Log2_FC (WT+ISRIB/WT, 50 nM, 24 h): −0.02524
- Tubb1 (TUBB1) EV abundance Cohen's d (WT+ISRIB/WT, 50 nM, 24 h): 0.3005
- Tubb1 (TUBB1) EV abundance Log2_FC (WT+ISRIB/WT, 50 nM, 24 h): 0.1945
- Usp7 (USP7) EV abundance Cohen's d (WT+ISRIB/WT, 50 nM, 24 h): −0.3328
- Usp7 (USP7) EV abundance Log2_FC (WT+ISRIB/WT, 50 nM, 24 h): −0.8347
- Wdr26 (WDR26) EV abundance Cohen's d (WT+ISRIB/WT, 50 nM, 24 h): −0.2688
- Wdr26 (WDR26) EV abundance Log2_FC (WT+ISRIB/WT, 50 nM, 24 h): −0.05756
- Zyx (ZYX) EV abundance Cohen's d (WT+ISRIB/WT, 50 nM, 24 h): −0.131
- Zyx (ZYX) EV abundance Log2_FC (WT+ISRIB/WT, 50 nM, 24 h): 0.1801
- Pearson r between DYT genotype effects and ISRIB effects (entire proteome): 0.37
- Pearson r between DYT genotype effects and ISRIB effects (genotype-disrupted proteins): 0.40
